Laboratory results published in ChEMBL document CHEMBL1806349, “Improved performance by replacing iminodiacetic residues with glyceryl residues in symmetrically branched oligoglycerols” (Bioorg Med Chem Lett, 2011).
Converted amounts (≈) assume the structure as drawn.

Experiments:
[1] = Solubility of the compound in water; assay type: physicochemical
[2] = AUC (0 to 24 hrs) in iv dosed Crl:CD(SD) rat; assay type: ADME, organism-based; parameters: time < 24 hr, route intravenous; conditions: plasma

Row | solubility [1] | AUC(0-t) at 24 h [2] | Compound
1 | 350 mM (≈ 199 mg/mL) | – | O=C(CCC(=O)NC(COC(CO)CO)COC(CO)CO)NCCCCCCCCNC(=O)c1ccccc1
2 | 21 mM (≈ 12.8 mg/mL) | – | O=C(CCC(=O)N(CC(=O)NC(CO)CO)CC(=O)NC(CO)CO)NCCCCCCCCNC(=O)c1ccccc1
3 | – | 95.1 µg·h/mL | CCCCCCCCCCCCCCCCCC(=O)OCC(CO[P+]([O-])(O)OCCNC(=O)CCC(=O)N(CC(=O)NC(COC(COC(CO)CO)COC(CO)CO)COC(COC(CO)CO)COC(CO)CO)CC(=O)NC(COC(COC(CO)CO)COC(CO)CO)COC(COC(CO)CO)COC(CO)CO)OC(=O)CCCCCCCCCCCCCCCCC (centres undefined)
4 | – | 53.1 µg·h/mL | CCCCCCCCCCCCCCCCCC(=O)OCC(CO[P+]([O-])(O)OCCNC(=O)CCC(=O)N(CC(=O)N(CC(=O)NC(COC(CO)CO)COC(CO)CO)CC(=O)NC(COC(CO)CO)COC(CO)CO)CC(=O)N(CC(=O)NC(COC(CO)CO)COC(CO)CO)CC(=O)NC(COC(CO)CO)COC(CO)CO)OC(=O)CCCCCCCCCCCCCCCCC (centres undefined)
